Measured values as given in article PMC11099041, “Tissue distribution and retention drives efficacy of rapidly clearing VHL-based PROTACs” (Communications Medicine, 2024).
Values joined by “and” are separate entries in the source; they are usually repeats but may differ in a detail not shown here. Equal entries are not always repeated.

Legend:
[1] = test system: primary human hepatocytes; test: Oil-spin hepatocyte uptake assay; assay type: in vitro ADME
Procedure: Uptake studies were conducted using the oil-spin method described previously. Cryopreserved primary human hepatocytes (Lot KCN, BioIVT, Hicksville, NY) were thawed at 37 °C and re-suspended in InVitroGro-HT medium (BioIVT, Hicksville, NY). The suspension was centrifuged at 50 × g for 5 minutes at 4 °C, and the resulting pellet was re-suspended to 2 million cells/mL in ice-cold KHB buffer with 10% human serum (BioIVT, Hicksville, NY). The cell suspension was equilibrated to 37 °C in a water bath for 10 minutes with or without inhibitors. At the start of the uptake experiment, 37 °C KHB buffer containing test compounds with or without inhibitors was added to the hepatocyte suspension. At various time points, the uptake was terminated by removing portions of the suspension to microcentrifuge tubes containing a lower […] ammonium acetate layer and an upper mineral/silicone oil layer. For the 4 °C experiment, ice-cold buffer containing test compounds with or without inhibitors was added to ice-cold hepatocyte suspension, and the mixture was incubated on ice for the duration of the experiment. The microcentrifuge tubes were immediately centrifuged at 16,000 × g for 12 seconds. The tubes were then frozen on dry ice. The frozen hepatocyte pellets were cut from the tubes and transferred to −80 °C freezer until LC-MS/MS analysis. […]

HCC2302 xenograft = test: Mouse efficacy study, tumor volume; assay type: in vivo
Procedure: (§1) Female C.B-17 SCID (Inbred) mice that weighed 16–20 g were inoculated with 10 million HCC2302 lung adenocarcinoma cells (suspended in a mixture of Hank’s Balanced Salt Solution containing Matrigel at a 1:1 ratio) in the right flank subcutaneously. Tumors were monitored until they reached a mean tumor volume of 110–167 mm^3. The mean tumor volume across all three groups was 141 ± 16.64 mm^3 (mean ± SD) at the initiation of dosing (Study WF-31, n = 10). […] Tumor volumes were measured in two dimensions (length and width) using Ultra Cal-IV calipers. The tumor volume was calculated with the following formula: Tumor size (mm^3) = (longer measurement × shorter measurement^2)/2. Animal body weights were measured using an Adventura scale. Percent weight change was calculated using the following formula: Group percent weight change = (new weight − initial weight)/ initial weight) × 100%.
(§2) In a separate study, tumors were monitored until they reached a mean tumor volume of 121–159 mm^3. The mean tumor volume across all three groups was 138 ± 10.26 mm^3 (mean ± SD) at the initiation of dosing (Study WF-34, n = 10).

[2] = Body weight in mouse efficacy study; assay type: in vivo; conditions: in g (unit assumed)
Procedure: as §1, §2

[3] = In vitro metabolism in human hepatocytes; conditions: incubations with hepatocytes and microsomes of rats and humans
Procedure: Hepatocyte cell count was ~1.1–1.8 × 10^6 cells/mL. After 3 h, samples were quenched with 3 volumes of acetonitrile, vortex mixed, and centrifuged. The supernatant (5 µL) was analyzed by LC-MS using a Kinetex EVO C18 column (1.7 μm, 2.1 × 150 mm) at 40 °C with a flow rate of 0.4 mL/min. Mobile phase A was 20 mM ammonium acetate in water, and mobile phase B was acetonitrile. The column was initially held at 5% B for 2 min, increased to 75% B over 33 minutes, and then increased to 95% B over 3 min, where it was maintained for 3 minutes before returning to 5% B over 0.5 min for re-equilibration. Mass spectrometry data was acquired using positive ion mode and data-dependent MS^2 acquisition.

[4] = WF-31, 40 mg/kg IV QW, day 0, 3, 7, 10, 13, 14, 21

## Cc1ncsc1-c1ccc(C(C)NC(=O)C2CC(O)CN2C(=O)C(c2cc(N3CCC(CN4CCC(OC5CC(Oc6cc(N7C8CCC7CN(c7cc(-c9ccccc9O)nnc7N)C8)ccn6)C5)CC4)CC3)no2)C(C)C)cc1 (centres unmarked) [A947]
[1]; 4 °C
  Uptake by primary human hepatocytes at 4 °C: abolished
[1]; co-administration of 1 mM rifamycin SV
  Temperature-dependent uptake with rifamycin SV: largely inhibited
HCC2302 xenograft; HCC2302 xenograft, weekly doses of 20 or 40 mg/kg
  Tumor growth inhibition: dose-dependent tumor growth inhibition
HCC2302 xenograft; [4]
  Tumor volume (mean): 202.88 mm^3 and 192.71 mm^3 and 203.88 mm^3 and 210.27 mm^3 and 204.46 mm^3 and 141.86 mm^3 and 179.41 mm^3
[2]; WF-31, 20 mg/kg IV QW, day 0, 3, 7, 10, 13, 14, 21
  Body weight (mean): 19.00 and 19.30 and 19.20 and 19.50
[2]; [4]
  Body weight (mean): 18.67 and 18.78 and 18.56 and 17.67 and 19.40 and 18.60
[2]; WF-34, 40 mg/kg IV QW, day 0, 4, 8, 11, 15, 18, 22, 25, 29
  Body weight (mean): 21.10 and 20.20 and 21.22 and 21.33 and 21.89 and 20.33 and 21.25 and 21.50
[3]
  Compound metabolized: < 10%
